The results in this text go back to US20240246935A1 (Plexium, Inc., priority 2021, published 2024).

For assay [1], the target named is human E3 ligase component cereblon (CRBN) (Homo sapiens (Human), UniProt Q96SW2). In words: Cereblon (CRBN) target engagement, NanoBRET TE Intracellular E3 Ligase Assay in transfected HEK-293T cells. The following applies: read-out: CRBN Binding EC50. The procedure: HEK293T cells were harvested ca. 75% confluent with trypsin and plated (500,000 cells/well) in a 6-well tissue culture plate in 2 mL of Dulbecco's Modified Eagle Medium (DMEM)+10% Fetal Bovine Serum (FBS) and incubated overnight at 37° C.
Sequence of human E3 ligase component cereblon (CRBN) (Q96SW2 whole entry, the tested form may be a part): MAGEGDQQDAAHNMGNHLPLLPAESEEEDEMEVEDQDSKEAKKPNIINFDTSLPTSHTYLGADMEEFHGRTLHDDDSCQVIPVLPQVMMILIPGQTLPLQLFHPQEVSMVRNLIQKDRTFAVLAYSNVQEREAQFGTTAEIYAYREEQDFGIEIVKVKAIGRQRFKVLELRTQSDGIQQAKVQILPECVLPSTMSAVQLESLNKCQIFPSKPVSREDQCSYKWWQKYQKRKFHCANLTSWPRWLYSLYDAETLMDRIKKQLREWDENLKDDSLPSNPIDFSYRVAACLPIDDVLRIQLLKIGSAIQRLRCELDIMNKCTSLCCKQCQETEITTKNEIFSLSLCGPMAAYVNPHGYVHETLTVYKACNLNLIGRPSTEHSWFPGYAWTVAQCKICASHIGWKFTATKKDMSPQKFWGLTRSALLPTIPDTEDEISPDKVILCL
Sequence of human E3 ligase component cereblon (CRBN) (Q16531 whole entry partner, the tested form may be a part): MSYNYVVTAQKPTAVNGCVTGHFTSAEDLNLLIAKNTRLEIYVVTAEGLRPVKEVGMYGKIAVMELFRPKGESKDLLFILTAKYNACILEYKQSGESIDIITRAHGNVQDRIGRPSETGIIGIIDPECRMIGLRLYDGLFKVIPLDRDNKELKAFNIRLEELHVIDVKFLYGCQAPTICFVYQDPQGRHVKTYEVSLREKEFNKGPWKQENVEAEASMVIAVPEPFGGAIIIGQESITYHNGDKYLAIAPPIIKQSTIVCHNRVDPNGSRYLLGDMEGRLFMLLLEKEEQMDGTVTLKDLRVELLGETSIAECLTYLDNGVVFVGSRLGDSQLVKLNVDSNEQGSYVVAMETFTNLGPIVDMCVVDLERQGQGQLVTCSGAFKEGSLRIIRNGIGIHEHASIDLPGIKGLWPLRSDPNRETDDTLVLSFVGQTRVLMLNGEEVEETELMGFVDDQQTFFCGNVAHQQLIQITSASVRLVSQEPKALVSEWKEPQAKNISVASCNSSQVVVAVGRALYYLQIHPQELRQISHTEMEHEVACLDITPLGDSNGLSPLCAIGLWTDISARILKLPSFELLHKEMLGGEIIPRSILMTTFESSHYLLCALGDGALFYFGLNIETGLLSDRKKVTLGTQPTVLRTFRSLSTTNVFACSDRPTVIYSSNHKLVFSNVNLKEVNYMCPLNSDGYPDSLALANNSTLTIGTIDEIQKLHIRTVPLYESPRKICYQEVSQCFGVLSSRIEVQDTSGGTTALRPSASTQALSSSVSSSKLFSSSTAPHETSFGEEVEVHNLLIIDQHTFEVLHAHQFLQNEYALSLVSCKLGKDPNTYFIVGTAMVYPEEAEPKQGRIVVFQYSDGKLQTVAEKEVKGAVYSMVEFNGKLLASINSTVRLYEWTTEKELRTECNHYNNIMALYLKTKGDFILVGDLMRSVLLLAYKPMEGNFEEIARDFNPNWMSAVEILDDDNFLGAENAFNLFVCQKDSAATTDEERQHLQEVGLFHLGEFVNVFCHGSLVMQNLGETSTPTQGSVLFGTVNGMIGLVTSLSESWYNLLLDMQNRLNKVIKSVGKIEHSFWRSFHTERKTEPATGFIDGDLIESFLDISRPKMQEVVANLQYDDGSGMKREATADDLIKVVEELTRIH
The NanoLuc-CRBN fusion vector (Nluc-CRBN; Promega) contains the coding region of human E3 ligase component cereblon (CRBN) fused to the C-terminus of the NanoLuc luciferase coding region. A mixture of 10 ng Nluc-CRBN and 990 ng DDB1 Expression Vector (Promega) was added to 125 μL Opti-Minimum Essential Medium (Opti-MEM™; Thermo Fisher) along with 2 μL P3000 reagent (Thermo Fisher) in a 1.5 mL epppendorf tube. This solution was added to Lipofectamine 3000 transfection reagent (5 μL; Thermo Fisher) in Opti-MEM (125 μL), mixed well, and incubated for 15 minutes at room temperature. The transfection mixture was added dropwise to cells and incubated overnight at 37° ° C., 5% CO2. Following transfection, cells were washed once with PBS, and trypsin (250 μL) was added and incubated 30-45 sec to dislodge cells. Complete media (2 mL) was added to resuspend cells to form a single cell suspension. Cells were centrifuged at 320×g for 5 min at room temperature, the supernatant was removed, and the cell pellet resuspended in Opti-MEM (3 mL; wash step repeated×2). After final resuspension in 5 mL Opti-MEM, cells were counted and resuspended at 200,000 cells/mL in Opti-MEM.
Cereblon target engagement was monitored by Bioluminescence Resonance Energy Transfer (BRET) in transfected HEK-293T cells using the NanoBRET TE Intracellular E3 Ligase Assay (Promega). Briefly, 384-well plates (white opaque plates, Corning 3574, low binding surface) were seeded with transfected HEK-293T cells (38 μL/well). 2 μL of 10 μM CRBN tracer (diluted 1:5 in Tracer Dilution Buffer) was added to each well. Plates were centrifuged at 320×g for 1 min at room temperature. Test compounds were added in a 11-point dilution series (typically 10 μM to […]) using a TECAN D300e Digital Dispenser. Plates were shaken for 2 minutes on a microplate shaker to mix compounds. Plates were centrifuged at 320×g for 1 min at room temperature, and subsequently incubated for 2 hours at 37° C.
After incubation, plates were allowed to cool to room temperature for 15 minutes. 20 μL of 3× Complete NanoBRET™ Nano-Glo® Substrate plus Inhibitor Solution (Promega, 1:166 Substrate and 1:500 dilution of Extracellular NanoLuc® Inhibitor diluted in Opti-MEM) were added to each well. Plates were incubated with shaking at room temperature for 3 minutes covered with foil. Plates were read on a CLARIOstar microplate reader (BMG LabTech), measuring at 450 nm (donor emission) and 610 nm (acceptor emission). The IC50 values were determined by regression to best fit four-parameter logistic curves using GraphPad Prism.
For orientation: In BRET a luciferase serves as donor, and the signal depends on an acceptor being close.

For the next assay, the system named is IKZF2 (Helios). In words: IKZF2 reporter degradation assay (HEK 293T IKZF2-mNeonGreen reporter cell line). Format: cell-based, human. The following applies: 1 μM compound, 24 hour incubation, HEK 293T IKZF2-mNeonGreen reporter. From the text: Polycistronic plasmids were constructed for the mammalian expression of fluorescent reporter fusions of human transcription factors IKZF1 (Ikaros), IKZF2 (Helios), and IKZF3 (Aiolos). The respective protein sequences had their C-terminal end joined to a GGGGS linker repeated three times followed by mNeonGreen, P2A sequence, and mScarlet. The DNA sequences of the open reading frames are as follows:
IKZF1, IKZF2, and IKZF3 constructs were cloned into the UCOE Hygromycin expression vectors (Millipore Sigma). Reporter constructs were transfected using cationic lipid reagents into adherent HEK 293T cells and stable integrants were selected by treatment with 200 μg/mL hygromycin B. Clonal populations were obtained from the population of stable integrants either by limiting dilution or fluorescence activated cell sorting.
The clonal stable cell lines were maintained under constant 200 μg/mL hygromycin B selection while being passaged for use in the degradation assays. […] The fluorescence intensity of the IKZF1/2/3-mNeonGreen (FITC channel) and mScarlet (PE channel) reporters were routinely analyzed by flow cytometry to confirm consistent expression levels between experiments.
The IKZF1/IKZF2/IKZF3 degradation assays were carried out by harvesting the HEK 293T reporter cell lines and resuspending the cells in media formulated for reduced background fluorescence (FluoroBrite; Thermo Fisher). The respective cell lines were seeded at a density of 4000 cells/well into black-walled 384-well optical grade assay tissue culture plates. The cells were incubated overnight at 37° C. to allow for attachment to the assay plate. Dilutions of the compounds were prepared in DMSO from 10 mM compound stocks. The assay plates were treated with appropriate concentrations of the compounds by dispensing the DMSO dilutions in quadruplicate wells with an upper limit of 0.5% final DMSO.
After 24 hour incubation with the compounds, the assay plates were imaged on an ImageXpress Pico microscopy system (cells maintained at 37° C. during imaging) to obtain the fluorescent readouts. The assay plates were imaged in the FITC and Tetramethylrhodamine (TRITC) channels to obtain the mNeonGreen fluorescence intensity (reporter degradation data) and mScarlet fluorescence intensity (for cell segmentation). 293T-IKZF1 and 293T-IKZF3 reporter cell lines were imaged with exposures of 500 milliseconds (ms) for both FITC and TRITC channels, while the 293T-IKZF2 reporter cell line was imaged with exposures of 1000 ms for FITC and 1250 ms for TRITC. The resulting data was analyzed with Cell Reporter Xpress software using the 2-channel cell scoring analysis with a “percent positive” readout. The TRITC channel was selected for the “nuclei” segmentation with a threshold of 20 while the FITC channel was selected for the “Marker 1” segmentation and a threshold of 100 for the IKZF1 and IKZF3 reporter lines. […] The minimum segmentation width was set to 6 micrometers and the maximum segmentation width was set to 15 micrometers for all cell lines. The DCs calculations were determined by regression to best fit four-parameter logistic curves using GraphPad Prism.

The term EC50 denotes the midpoint of the concentration-response curve.

In the case of `N#Cc1cc(Cl)ccc1C1CN([C@H]2CCC[C@@H]2Oc2ccc3c(c2)CN(C2CCC(=O)NC2=O)C3=O)C1` (mixture of isomers) [Compound 83, Rac-5-chloro-2-(1-((trans)-2-((2-(2,6-dioxopiperidin-3-yl)-1-oxoisoindolin-5-yl)oxy)cyclopentyl)azetidin-3-yl)benzonitrile], in assay [1], the concentration for a half-maximal effect (EC50) came out at 36 nM. Further, the “IKZF2 % Degradation @ 1 μM” value in the assay with IKZF2 (Helios) is reported as 48.8%.
As to `N#Cc1cc(Cl)ccc1C1CN([C@H]2CCC[C@H]2Oc2ccc3c(c2)CN(C2CCC(=O)NC2=O)C3=O)C1` (mixture of isomers) [Compound 84, Rac-5-chloro-2-(1-((cis)-2-((2-(2,6-dioxopiperidin-3-yl)-1-oxoisoindolin-5-yl)oxy)cyclopentyl)azetidin-3-yl)benzonitrile], in assay [1], the EC50 amounted to 14 nM. The “IKZF2 % Degradation @ 1 μM” value in the assay on IKZF2 (Helios) was less than 15%.
For `O=C1CCC(N2Cc3cc(O[C@@H]4CCCC[C@@H]4N4CC(O)(c5ccccc5)C4)ccc3C2=O)C(=O)N1` (mixture of isomers) [Compound 97, Rac-3-(5-(((cis)-2-(3-hydroxy-3-phenylazetidin-1-yl)cyclohexyl)oxy)-1-oxoisoindolin-2-yl)piperidine-2,6-dione], in that order: 31 nM and less than 15%.
For `N#Cc1cc(Cl)ccc1C1CN([C@H]2CCCC[C@@H]2Oc2ccc3c(c2)CN(C2CCC(=O)NC2=O)C3=O)C1` (mixture of isomers) [Compound 99, Rac-5-chloro-2-(1-((trans)-2-((2-(2,6-dioxopiperidin-3-yl)-1-oxoisoindolin-5-yl)oxy)cyclohexyl)azetidin-3-yl)benzonitrile], in that order: 44 nM and 80.2%.
For `N#Cc1cc(F)ccc1C1CN([C@H]2CCCC[C@@H]2Oc2ccc3c(c2)CN(C2CCC(=O)NC2=O)C3=O)C1` (mixture of isomers) [Compound 101, Rac-2-(1-((trans)-2-((2-(2,6-dioxopiperidin-3-yl)-1-oxoisoindolin-5-yl)oxy)cyclohexyl)azetidin-3-yl)-5-fluorobenzonitrile], in that order: 33 nM and 79.2%.
For `N#Cc1ccccc1C1CN([C@H]2CCCC[C@@H]2Oc2ccc3c(c2)CN(C2CCC(=O)NC2=O)C3=O)C1` (mixture of isomers) [Compound 108, Rac-2-(1-((trans)-2-((2-(2,6-dioxopiperidin-3-yl)-1-oxoisoindolin-5-yl)oxy)cyclohexyl)azetidin-3-yl)benzonitrile], in assay [1], the half-maximal effective concentration (EC50) came out at 58 nM. Besides, the “IKZF2 % Degradation @ 1 μM” value in the assay with IKZF2 (Helios) is reported as 71.3%.
For `N#Cc1ccccc1C1CN([C@H]2CCCC[C@H]2Oc2ccc3c(c2)CN(C2CCC(=O)NC2=O)C3=O)C1` (mixture of isomers) [Compound 109, Rac-2-(1-((cis)-2-((2-(2,6-dioxopiperidin-3-yl)-1-oxoisoindolin-5-yl)oxy)cyclohexyl)azetidin-3-yl)benzonitrile], in that order: 37 nM and less than 15%.
For `N#Cc1ccc(C2CN([C@@H]3CCCC[C@@H]3Oc3ccc4c(c3)CN(C3CCC(=O)NC3=O)C4=O)C2)c(F)c1` (mixture of isomers) [Compound 115, Rac-4-(1-((cis)-2-((2-(2,6-dioxopiperidin-3-yl)-1-oxoisoindolin-5-yl)oxy)cyclohexyl)azetidin-3-yl)-3-fluorobenzonitrile], in that order: 12 nM and 63.6%.
For `N#Cc1ccc(C2CN([C@H]3CCCC[C@@H]3Oc3ccc4c(c3)CN(C3CCC(=O)NC3=O)C4=O)C2)c(F)c1` (mixture of isomers) [Compound 116, Rac-4-(1-((trans)-2-((2-(2,6-dioxopiperidin-3-yl)-1-oxoisoindolin-5-yl)oxy)cyclohexyl)azetidin-3-yl)-3-fluorobenzonitrile], in that order: 24 nM and less than 15%.
For the molecule `N#Cc1ccc(C2CN([C@H]3CCCC[C@@H]3Oc3ccc4c(c3)CN(C3CCC(=O)NC3=O)C4=O)C2)cc1F` (mixture of isomers) [Compound 119, Rac-4-(1-((trans)-2-((2-(2,6-dioxopiperidin-3-yl)-1-oxoisoindolin-5-yl)oxy)cyclohexyl)azetidin-3-yl)-2-fluorobenzonitrile], the concentration for a half-maximal effect (EC50) in assay [1] is 8 nM. Moreover, in the assay with IKZF2 (Helios), the “IKZF2 % Degradation @ 1 μM” value stood at 63.8%.
Take `N#Cc1ccc(C2CN([C@@H]3CCCC[C@@H]3Oc3ccc4c(c3)CN(C3CCC(=O)NC3=O)C4=O)C2)cc1F` (mixture of isomers) [Compound 122, rac-4-(1-((cis)-2-((2-(2,6-dioxopiperidin-3-yl)-1-oxoisoindolin-5-yl)oxy)cyclohexyl)azetidin-3-yl)-2-fluorobenzonitrile]: the 50% effective concentration (EC50) in assay [1] was 20 nM. Further, in the assay with IKZF2 (Helios), the “IKZF2 % Degradation @ 1 μM” value is recorded as less than 15%.
`N#Cc1cc(Cl)ccc1C1CN([C@@H]2CCCC[C@@H]2Oc2ccc3c(c2)CN(C2CCC(=O)NC2=O)C3=O)C1` (single isomer, unassigned) [Compound 37]: the half-maximal effective concentration (EC50) in assay [1] amounted to 25 nM. Moreover, the “IKZF2 % Degradation @ 1 μM” value in the assay on IKZF2 (Helios) is listed as less than 15%.
As for `N#Cc1cc(Cl)ccc1C1CN([C@H]2CCCC[C@@H]2Oc2ccc3c(c2)CN(C2CCC(=O)NC2=O)C3=O)C1` (single isomer, unassigned) [Compound 38], the concentration for a half-maximal effect (EC50) in assay [1] was 52 nM. In addition, the “IKZF2 % Degradation @ 1 μM” value in the assay on IKZF2 (Helios) is recorded as 84.9%.
For `N#Cc1cc(Cl)ccc1C1CN([C@H]2CCCC[C@@H]2Oc2ccc3c(c2)CN(C2CCC(=O)NC2=O)C3=O)C1` (single isomer, unassigned) [Compound 39], in that order: 8 nM and 84.6%.
For `O=C1CCC(N2Cc3c(ccc(O[C@H]4CCCC[C@@H]4N4CC(c5ccccc5)C4)c3Cl)C2=O)C(=O)N1` (single isomer, unassigned) [Compound 41], in that order: 61 nM and less than 15%.
For `O=C1CCC(N2Cc3c(ccc(O[C@H]4CCCC[C@@H]4N4CC(c5ccccc5)C4)c3Cl)C2=O)C(=O)N1` (single isomer, unassigned) [Compound 42], the EC50 in assay [1] was 43 nM. Moreover, the “IKZF2 % Degradation @ 1 μM” value in the assay with IKZF2 (Helios) is on record as less than 15%.
As to `N#Cc1cc(F)ccc1C1CN([C@@H]2CCCC[C@H]2Oc2ccc3c(c2)CN(C2CCC(=O)NC2=O)C3=O)C1` (single isomer, unassigned) [Compound 43], the EC50 in assay [1] amounted to 42 nM. In the assay on IKZF2 (Helios), the “IKZF2 % Degradation @ 1 μM” value was less than 15%.
